Measured values published in PubChem BioAssay AID651717 (Broad Institute, 2012).

Tested on: mESC Bmi1-luciferase reporter, firefly/renilla ratio, 24 h
Experiment: Bmi1-luciferase reporter activators in mESC, dose response, esBAF inhibitor project, mouse embryonic stem cells, cherry-pick (AID 651717);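 also: luciferase knocked into Bmi1 locus with EF-1a renilla as cell number control; rising ratio signals esBAF inhibition which derepresses Bmi1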

| SMILES | AC40 [µM] |
| --- | --- |
| O=C1/C(=C/c2cccc3ccccc23)CCCc2ccccc21 | 5.34 |
| Cc1nc(-c2ccc(Cl)cc2)sc1C1(C)CC(c2cccnc2)=NO1 (configuration not stated) | 5.57 |
| COc1cc(CNc2ccc(N3CCN(C(C)=O)CC3)cc2)ccc1OCc1ccc(F)cc1 | 3.93 |
| CN(CCc1ccccn1)C(=O)CCc1nnc(CCCc2ccccc2)o1 | 4.93 |
| CCS(=O)(=O)N1Cc2ccccc2CC1C(=O)Nc1cccc(OC)c1 (configuration not stated) | 8.28 |
| CS(=O)(=O)c1ccccc1C(=O)Nc1ccc(-c2nc3ccccc3o2)cc1 | 4.29 |
| COc1ccccc1C(=O)Nn1cnc2ccccc2c1=O | 8.5 |
| Cc1nn(Cc2c(F)c(F)c(F)c(F)c2F)c(C)c1NC(=O)c1ccc(COc2cc(Cl)ccc2Cl)cc1 | 3.23 |
| C=CCn1c(O)c(C=Nc2ccccc2)sc1=S | 5.13 |
| CC(O)(c1ccccc1)c1nc(-c2cccc(C(=O)O)c2)cs1 (configuration not stated) | 4.13 |
| FC(F)(F)c1ccccc1Cc1c(-c2cccc(Br)c2)nc2c3ccccc3ccn12 | 9.57 |
| COc1cccc(NC(=O)N2CCc3nc(Nc4ccc(C(C)C)cc4)ncc3C2)c1 | 29.9 |
| COc1ccc(NC(=O)c2cc(F)cc(F)c2)cc1Cl | 4.77 |
| Cc1ccc(C(=O)NNC(=O)c2ccc3ccccc3c2)cc1 | 7.86 |
| C#CCSc1nnc(-c2ccc(O)cc2)o1 | 8.15 |
| c1ccc(-c2ccc3[nH]ccc3c2)cc1 | 3.07 |
| Oc1cccc(C=NNc2ccccn2)c1 | 5.37 |
| O=C(NC1CCCCC1)c1ccc(-c2ccccc2)cc1 | 3.77 |
| O=c1c2ccccc2nnn1CSc1nnnn1-c1ccccc1 | 9.13 |
| COc1ccc(-c2cc([C@H]3[C@H]4C=CC[C@@H](C)[C@@H]4C(=O)N3Cc3ccccc3)ccc2F)cc1OC | 17.8 |
| CCCC(=O)Nc1ccc2c(c1)C(=O)N(C)C[C@H](OC)[C@@H](C)CN(Cc1ccc(-c3ccccn3)cc1)[C@@H](C)CO2 | 8.13 |
| COc1ccc(OCc2cc(C(=O)NC(C)Cc3cnccn3)no2)c(Cl)c1 (configuration not stated) | 5.42 |
| O=C(CC(NC(=O)OCc1ccccc1)c1nn[nH]n1)OCc1ccccc1 (configuration not stated) | 2.6 |

| SMILES | AC40 [µM] |
| --- | --- |
| CN(C)c1ccc(-c2ccc3oc(-c4ccsc4)cc(=O)c3c2)cn1 | 2.73 |
| CC(=O)c1ccc(NC(=O)c2cc(C)nc3ccccc23)cc1 | 3.55 |
| CCN1C(=O)C(=CC=CN(C)c2ccccc2)SC1=S | 0.466 |
| Cc1ccc(NC(=O)C2CC3CCC2C3)c(Br)c1 (configuration not stated) | 1.22 |
| O=C(Nc1ccc2c(c1)C(=O)c1ccccc1-2)c1ccccc1 | 1.08 |
| O=C(O)c1ccc2noc(-c3ccccc3)c2c1 | 1.54 |
| Cc1ccc(Nc2nc(-c3cccnc3)cs2)cc1Cl | 0.961 |
| CCCNC(=O)Nc1ccc2c(c1)C(=O)N(C)C[C@H](OC)[C@@H](C)CN(Cc1ccc(-c3ccccn3)cc1)[C@H](C)CO2 | 1.73 |
| CCn1ccnc1CN(C)C(=O)c1cc(COc2ccccc2SC)on1 | 8.01 |
| CCOC(=O)N1CCN(C(=O)CSCC(=O)Nc2nc(-c3ccc4c(c3)OCO4)cs2)CC1 | 12.1 |
| c1ccc2nc3c(ccc4ccccc43)cc2c1 | 0.939 |
| COc1cccc(NC(=O)N2CCN(c3cccc(C)c3C)CC2)c1 | 4.88 |
| Cc1csc(=O)n1CC(=O)OCc1cccc2ccccc12 | 11.4 |
| CCCS(=O)(=O)N1CCC(C(=O)NC2CCC(C)CC2)CC1 (configuration not stated) | 3.19 |
| Brc1ccccc1-c1nnc(-c2cccnc2)o1 | 6.08 |
| COc1cc(OC)c2c(-c3cccc(/C=C/c4ccc(F)cc4)c3)cc(=O)oc2c1 | 3.49 |
| O=C(CCNC(=O)c1ccccc1)Nc1nc2ccccc2s1 | 3.91 |
| Cc1ccc(Cn2cc(-c3ccccc3)nn2)cc1 | 7.62 |
| CC(=O)Nc1ccc2c(c1)Cc1c(F)cccc1-2 | 0.977 |
| COc1cccc(OCc2cc(C(=O)N3CCN(C(C)=O)CC3)no2)c1 | 3.15 |
| COc1ccc(NC(=O)Nc2cccc(C)n2)cc1 | 3.45 |
| COc1ccc(-c2csc(Nc3cc(C)ccn3)n2)cc1C | 1.91 |
| Cc1ccnc(NC(=O)c2ccc(Cl)c(S(=O)(=O)N3CCCCC3)c2)c1 | 11.7 |

| SMILES | AC40 [µM] |
| --- | --- |
| O=c1sc(N2CCN(c3ccc(F)cc3)CC2)nc2ccsc12 | 1.76 |
| COc1ccccc1CCC(=O)Nc1nc2ccccc2[nH]1 | 3 |
| Cc1cc(-c2nnco2)c(C)n1-c1ccccc1 | 6.01 |
| COC(=O)c1ccc(COC(=O)c2ccc(SC)cc2OC)cc1 | 8.51 |
| O=C(CC(=O)c1ccccc1)c1ccccc1 | 2.47 |
| Cc1ccc(NC(=O)c2ccnc(C(C)(C)C)c2)cc1 | 1.95 |
| COc1ccc(C(O)c2nc(-c3ccc4ccccc4c3)cs2)cc1 (configuration not stated) | 13 |
| Nc1cc2c(cc1Cl)-c1ccc(Cl)cc1C2 | 11.3 |
| O=C(CNC(=O)c1ccccc1F)Nc1ccc2c(c1)OCO2 | 3.55 |
| COc1ccc(CN(C(=O)CSc2nnc(-c3c[nH]c4ccccc34)o2)c2ccc(F)cc2)cc1OC | 7.04 |
| c1ccc(-c2csc(Nc3cccnc3)n2)nc1 | 4.74 |
| O=C(N/N=C/c1ccccc1)c1ccc(NC(=O)c2ccc(F)cc2)cc1 | 1.46 |
| COc1ccc(C(=O)Nc2ccc(C3CC3(Cl)Cl)cc2)cc1 (configuration not stated) | 7.09 |
| CC(C)c1ccc(-c2nn(-c3ccccc3)cc2C2C(C#N)=C(N)OC3=C2C(=O)CC(C)(C)C3)cc1 (configuration not stated) | 29.1 |
| CC(C)CC1C(=O)N(Cc2cn(CCC3OCCCO3)nn2)CCS(=O)(=O)N1Cc1ccc(-c2ccc(Cl)nc2)cc1 (configuration not stated) | 12.9 |
| Cc1sc2nc(-c3ccc(Br)cc3)oc(=O)c2c1C | 1.61 |
| O=C(O)c1ccc(N/N=C/c2cccc3nccnc23)cc1 | 4.04 |
| Cc1ccc(C(=O)Cc2ccccc2)c(O)c1 | 6.34 |
| CC(C)(C)C(=O)N1CCN(c2nc3ccccc3s2)CC1 | 0.702 |
| COc1ccc(C(=O)/C=C(\C)Nc2ccc3c(c2)OCO3)cc1 | 1.85 |
| O=c1c2ccccc2oc2cc(Br)ccc12 | 7.16 |
| COc1cc(N=Nc2ccc(C(=O)N(C)C)cc2)c(C)cc1N | 8.86 |
| CC(NC(=O)c1cc(COc2ccc(-n3cncn3)cc2)on1)c1ccc(F)cc1 (configuration not stated) | 5.4 |

| SMILES | AC40 [µM] |
| --- | --- |
| COCOc1ccc(-c2cc(=O)c3c(O)cc(OCOC)cc3o2)cc1 | 8.4 |
| Cc1ccc2sc(NC(=O)C3CC3)nc2c1C | 6.72 |
| O=C(NNC(=O)c1cccc2ccccc12)c1ccc2c(c1)OCO2 | 17.8 |
| CSc1nnc(NC(=O)c2cc3ccccc3oc2=O)s1 | 5.97 |
| Cc1ccc(OCc2cnc(Cl)s2)c(C)c1 | 4.12 |
| O=C(Nc1nc2ccc(Cl)cc2s1)c1cccc(N2C(=O)CCC2=O)c1 | 3.25 |
| O=C(c1cc(COc2cccc(C(F)(F)F)c2)on1)N1CCCC1 | 17.5 |
| c1ccc(-c2noc(CC3CCCCC3)n2)cc1 | 4.12 |
| CC1CCCC(C)N1CCCNC(=O)c1ccc2nc(N3CCCCC3)sc2c1 (configuration not stated) | 9 |
| Nc1n[nH]c(N)c1N=Nc1ccc(Cl)cc1 | 6.31 |
| CC(=O)Nc1ccc2nc(C)n(Cc3ccc(Cl)cc3)c(=O)c2c1 | 4.21 |
| COc1ccc(C(=O)CC(=O)c2ccccc2O)cc1OC | 15.1 |
| COc1ccc(-c2cc3ccccc3s2)cc1[C@H]1[C@H]2C=CC[C@@H](C)[C@@H]2C(=O)N1Cc1ccccc1 | 1.53 |
| CS(=O)(=O)N1CCc2cc(C(=O)Nc3ccc(Cl)cc3)ccc21 | 6.5 |
| Cc1ccc(OCc2cc(C(=O)N3CCN(C4CCCCC4)CC3)no2)cc1C | 10 |
| O=P(O)(O)c1ccccc1OCCOCCOCCOCCOc1ccccc1P(=O)(O)O | 8.04 |
| Cc1cccc(-c2noc(CCC(=O)N3CCN(c4cc(C)ccc4C)CC3)n2)c1 | 2.82 |
| COc1ccc(Cl)cc1C(=O)Nc1ccc(Br)c(C)n1 | 6.83 |
| Cc1ccc(Cl)cc1-c1cc(C(=O)Nc2ccc(F)cc2)[nH]n1 | 4.92 |
| CC(=O)c1ccc(S(=O)(=O)N(Cc2cc3cc4c(cc3[nH]c2=O)OCCO4)CC2CCCO2)cc1 (configuration not stated) | 15.2 |
| Cc1ccc(OCc2cc(C(=O)N(C)CCc3ccccn3)no2)cc1C | 2.28 |
| O=C(Nc1cccc(O)c1)c1ccc(Br)cc1 | 2.45 |
| O=C(Nc1ccccc1Cl)NC1CCCCCCC1 | 5.67 |

| SMILES | AC40 [µM] |
| --- | --- |
| O=C1CCCc2c1sc1nc3n(c(=O)c21)CCCCC3 | 4.12 |
| COc1ccccc1C(=O)Nc1sc2c(c1C#N)CCC2 | 2.15 |
| Cn1c(=NC(=O)C2CC2)sc2cc(F)cc(F)c21 | 16.6 |
| COc1cc(Cl)ccc1OCc1cc(C(=O)N(C)Cc2cccc3cnccc23)no1 | 7.79 |
| O=C1NC(=Nc2ccccc2)S/C1=C\c1cccn1-c1ccccc1 | 2.43 |
| Cc1cc(N2CCCCC2)nc2ccc(NC(=O)CCC(=O)NCCC(C)C)cc12 | 16.6 |
| Cc1cc(C(=O)Nc2sc(C)c(-c3ccc(F)cc3)c2C(N)=O)no1 | 0.612 |
| CCNC(=O)O/N=C(\C)c1sc(-c2ccccc2)nc1C | 3.29 |
| Cc1ccc(Nc2nc(Cl)nc(NC(C)(C)C)n2)cc1 | 1.47 |
| CCCn1cnc2c(SCCc3ccccc3)nc(N)nc21 | 7.67 |
| CC(=O)NCCNc1nc2cc(-c3ccc(C)cc3)sc2c(=O)n1C | 14.3 |
| CCCC(=O)Nc1sc2c(c1C#N)CCCC2 | 19 |
| Cc1ccc(NC(=O)c2ccc3c(c2)CCN3S(C)(=O)=O)cc1 | 10.5 |
| COc1ccc(-c2cc(C(=O)Nc3ccc(C(N)=O)cc3)c3ccccc3n2)cc1 | 4.1 |
| CC(=O)c1cccc(OCc2cc(C(=O)NCCC3=CCCCC3)no2)c1 | 1.23 |
| CCCC1(C)Nc2ccccc2-c2nc3ccccc3n21 (configuration not stated) | 11.3 |
| COC(=O)c1sccc1NC(=O)c1ccc(OC)cc1 | 6.81 |
| COc1ccc(OCc2cc(C(=O)NC(C)c3csc(C)n3)no2)c(Cl)c1 (configuration not stated) | 4.18 |
| O=C(Nc1ccncc1)c1ccc2ncsc2c1 | 22.8 |
| O=C(Cn1cc(C(F)(F)F)cc(Cl)c1=O)NCc1ccc(F)cc1 | 7.38 |
